Test results from US20020115212A1, “Enchanced PKR expression and cytokine production” (priority 2000, published 2002).

Experiments:
[1] = tested on: proinflammatory cytokines; experiment: Induction of other proinflammatory cytokines by virus or poly I:C in the presence of 2-aminopurine; assay type: cell-based; details: results not shown
[2] = target: PKR (Homo sapiens, UniProt P19525); details: stated as known; cited from earlier work
[3] = tested on: IFN-alpha production in Namalwa PKR++41.027 and WT Namalwa cells; experiment: IFN-alpha production (ELISA) after PMA priming and Sendai virus or poly I:C induction in the presence of 2-aminopurine; assay type: cell-based, human; details: 5 mM 2-aminopurine, 20 nM PMA 24 hr, Namalwa PKR++41.027 and WT cells
Experimental: Parallel experiments were performed on duplicate cultures of the individual subclones of Namalwa PKR++41.027 cells and WT Namalwa cells. These cultures were also pretreated with 20 nM phorbol myristate acetate at a cell density 5.0×10^5 cells/ml, in 6 well plates for 24 hr followed by treatment with 500 HAU/ml Sendai virus or poly I:C (200 μg/ml) plus 10 μg/ml DEAE Dextran. In addition these cultures were also treated with the PKR inhibitor 5 mM 2-aminopurine (2AP; obtained from Aldrich Chemical Company). Culture supernatants from the Sendai virus-induced cells were removed at 24 hr, post-induction and culture supernatants from the Poly I:C-induced cells were removed at 72 hr and evaluated for IFN alpha production using ELISA (PBL Catalogue No. 41105 Human Interferon Alpha Multi-Species ELISA Kit).

[4] = tested on: IFN-alpha production in Namalwa PKR++41.027 and WT Namalwa cells; experiment: IFN-alpha production (ELISA) after PMA priming and poly I:C induction; assay type: cell-based, human; details: 20 nM PMA 24 hr, 200 μg/mL poly I:C plus 10 μg/mL DEAE Dextran, 72 hr
Experimental: Cells from individual subclones of Namalwa PKR++41.027 cells and WT Namalwa cells were pretreated with 20 nM phorbol myristate acetate at a cell density 5.0×10^5 cells/ml, in 6 well plates for 24 hrs followed by treatment with 500 HAU/ml Sendai virus or 200 μg/mL poly I:C plus 10 μg/mL DEAE Dextran for an additional 72 hr to induce IFN expression. Culture supernatants from the Sendai virus-treated cells were removed at 24 hr and 48 hr post-induction and supernatants from the Poly I:C treated cells were removed at 72 hr. IFN-alpha production was measured in these cell culture supernates using ELISA (Human Interferon Alpha Multi-Species ELISA Kit obtained from PBL).
FIG. 5 illustrates IFN-alpha production was enhanced following both Sendai virus and PolyI:C induction in Namalwa PKR++41.027 cells relative to IFN-alpha production by wild type Namalwa cells as shown in FIG. 5.

Chain of PKR (P19525 whole entry): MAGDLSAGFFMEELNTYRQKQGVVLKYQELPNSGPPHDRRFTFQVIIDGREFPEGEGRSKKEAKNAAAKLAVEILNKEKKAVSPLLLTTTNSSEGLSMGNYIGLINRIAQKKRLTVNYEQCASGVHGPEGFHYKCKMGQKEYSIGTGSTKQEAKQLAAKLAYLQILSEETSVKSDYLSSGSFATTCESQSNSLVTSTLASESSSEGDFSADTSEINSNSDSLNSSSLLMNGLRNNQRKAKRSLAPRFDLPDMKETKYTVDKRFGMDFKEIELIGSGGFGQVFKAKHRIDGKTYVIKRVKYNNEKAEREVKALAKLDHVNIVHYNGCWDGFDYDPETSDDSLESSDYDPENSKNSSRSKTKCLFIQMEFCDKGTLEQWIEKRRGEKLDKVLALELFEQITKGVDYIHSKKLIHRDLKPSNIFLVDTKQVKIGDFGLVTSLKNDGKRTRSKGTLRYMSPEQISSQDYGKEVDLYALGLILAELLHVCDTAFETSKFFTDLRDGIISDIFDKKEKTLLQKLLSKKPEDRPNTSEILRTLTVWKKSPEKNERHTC

Compound | induction of other proinflammatory cytokines by virus or poly I:C [1] | PKR kinase activity [2] | IFN-alpha production following Sendai virus induction ([3]; 500 HAU/ml Sendai virus, supernatant at 24 hr) | IFN-alpha production following poly I:C induction ([3]; poly I:C 200 μg/ml plus 10 μg/ml DEAE Dextran, supernatant at 72 hr) | IFN-alpha induction in Namalwa PKR++41.027 cells [4] | IFN-alpha induction in parental wild type Namalwa cells [4]
Nc1ncc2[nH]cnc2n1 [2-aminopurine] | inhibits | known inhibitor | decreased | decreased | – | –
poly I:C | – | – | – | – | capable of inducing IFN | absence of detectable IFN-alpha induction
